# Several values for one entry are separate records, joined by “and”; a condition that tells them apart may be missing. Equal entries are not always repeated. Where two headings read alike, the source gives them in different places.
# Assays:
# [1] = tested on: HIV; type: cell-based; settings: for duration of action: cell culture, cysteamine re-added every 12 hours, WR-1065 added once in a 72 hour period
# [2] = mouse, in vivo; cited from earlier work
# [3] = mouse, in vivo, cited from earlier work
# [4] = in vivo; cited from earlier work
# [5] = tested on: Ad7-p (strain Gomen); test: Infectious virus yield in A549 cell monolayers, Ad7-p; type: cell-based, adenovirus species B
# [6] = tested on: Ad5-p (strain Adenoid 75); test: Infectious virus yield in A549 cell monolayers, Ad5-p; type: cell-based, adenovirus species C
# [7] = tested on: Ad4-p (strain RI-67); test: Infectious virus yield in A549 cell monolayers, Ad4-p; type: cell-based, adenovirus species E
# [8] = tested on: A/HKx31 (H3N2); type: cell-based, influenza A
# [9] = tested on: Adenovirus 5p; test: Plaque reduction assay in A549 cells; type: cell-based
# [10] = tested on: PHA blasts; test: Viability of PHA blasts exposed to WR-1065; type: cell-based, Human; settings: uninfected PHA blasts
# [11] = rhesus macaques, cited from earlier work
# [12] = Experiment #1, 10 μM AZT, 72 hours
# [13] = Experiment #1, 1000 μM WR1065, 72 hours
smiles,measurement,setting,value
"Cc1cn([C@H]2C[C@H](N=[N+]=[N-])[C@@H](CO)O2)c(=O)[nH]c1=O [AZT, Zidovudine]",Estimated percent viral inhibition,[1]; [12],~100%
same,HIV P24,[1]; [12],0.13 pg/mL
same,Estimated percent viral inhibition,"[1]; Experiment #3, 10 μM AZT",~100%
same,HIV P24,"[1]; Experiment #3, 10 μM AZT",2.9 pg/mL
"NCCCNCCSP(=O)(O)O [Amifostine, S-2-(3-aminopropyl)aminoethyl phosphorothioic acid]",100% effective radioprotective dose,[2],about one half
same,maximally tolerated dose (MTD),[3]; ip,432 mg/kg BW
same,maximally tolerated dose (MTD),[3]; po,720 mg/kg BW
same,effects of single doses,[4],no untoward effects
"NCCCNCCS [WR-1065, 2-(3-aminopropylamino)ethanethiol]",Mean infectious virus yields 96-h post infection & WR 1065 treatment,"[5]; Trial 1, <10 μM WR 1065",1.85 PFUs × 10^6
same,Mean infectious virus yields 96-h post infection & WR 1065 treatment,"[5]; Trial 1, <33 μM WR 1065",0.85 PFUs × 10^6
same,Mean infectious virus yields 96-h post infection & WR 1065 treatment,"[5]; Trial 1, <100 μM WR 1065",1.15 PFUs × 10^6
same,Mean infectious virus yields 96-h post infection & WR 1065 treatment,"[5]; Trial 2, <100 μM WR 1065",30.5 PFUs × 10^6
same,Mean infectious virus yields 96-h post infection & WR 1065 treatment,"[6]; Trial 1, <10 μM WR 1065",9.0 PFUs × 10^6
same,Mean infectious virus yields 96-h post infection & WR 1065 treatment,"[6]; Trial 1, <33 μM WR 1065",5.65 PFUs × 10^6
same,Mean infectious virus yields 96-h post infection & WR 1065 treatment,"[6]; Trial 1, <100 μM WR 1065",2.25 PFUs × 10^6
same,Mean infectious virus yields 96-h post infection & WR 1065 treatment,"[6]; Trial 2, <33 μM WR 1065",600 PFUs × 10^6
same,Mean infectious virus yields 96-h post infection & WR 1065 treatment,"[6]; Trial 2, <100 μM WR 1065",500 PFUs × 10^6
same,Mean infectious virus yields 96-h post infection & WR 1065 treatment,"[6]; Trial 3, <33 μM WR 1065","1,660 PFUs × 10^6"
same,Mean infectious virus yields 96-h post infection & WR 1065 treatment,"[7]; Trial 1, <33 μM WR 1065","1,420 PFUs × 10^6"
same,Mean infectious virus yields 96-h post infection & WR 1065 treatment,"[7]; Trial 1, <100 μM WR 1065",980 PFUs × 10^6
same,Mean infectious virus yields 96-h post infection & WR 1065 treatment,"[7]; Trial 2, <100 μM WR 1065",9.5 PFUs × 10^6
same,Mean plaque number,[8],59.3 and 57 and 48
same,plaque number (plaque reduction assay),[9]; 16.5 μM WR1065,63
same,plaque number (plaque reduction assay),[9]; 50 μM WR1065,41
same,reduction of plaque number,[9]; 50 μM WR1065,36%
same,Estimated percent viral inhibition,[1]; [13],~100%
same,HIV P24,[1]; [13],0.13 pg/mL
same,suppression of HIV replication,[1]; WR-1065 at a concentration of less than 100 μM,> 99.9%
same,duration of action,[1],long duration of action
same,in vitro anti-HIV activity relative to cysteamine,[1]; compared by effective concentration,over 2 fold
same,% Viable Cells (compared to control),"[10]; 1 μM WR-1065, 72 hours",83%
same,% Viable Cells (compared to control),"[10]; 5 μM WR-1065, 72 hours",82%
same,% Viable Cells (compared to control),"[10]; 10 μM WR-1065, 72 hours",90%
same,% Viable Cells (compared to control),"[10]; 50 μM WR-1065, 72 hours",89%
same,% Viable Cells (compared to control),"[10]; 100 μM WR-1065, 72 hours",63%
same,% Viable Cells (compared to control),"[10]; 500 μM WR-1065, 72 hours",73%
same,% Viable Cells (compared to control),"[10]; 1000 μM WR-1065, 72 hours",30%
same,Concentration (plasma),[11]; 1 h after duodenal administration of 150 mg/kg BW of parent drug,6210 ng/mL
same,Concentration (plasma),[11]; 2 h after duodenal administration of 150 mg/kg BW of parent drug,4140 ng/mL
same,Concentration (plasma),[11]; 6 h after duodenal administration of 150 mg/kg BW of parent drug,2070 ng/mL
"NCCS [cysteamine, Cysteamine]",suppression of HIV replication,"[1]; 200 μM cysteamine, in vitro assay system as described above",~100%
same,duration of action,[1],very short

# — patent US9849143B2, “Broad spectrum antiviral and methods of use” (The Burlington HC Research Group, Inc., priority 2006, dated 2017)
